Where two headings read alike, the source gives them in different places.
Assays:
[1] = target: GST-tagged KRAS-G12D (2-169) (Homo sapiens, UniProt P01116, G12D); assay: Nucleotide exchange assay (NEA), SOS-mediated, HTRF, KRAS G12D; format: biochemical; conditions: IC50 extracted at 30 min, 20 nM SOScat
In short: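 Compound preincubated 1 h at RT with 0.25 nM GST-KRAS-G12D (2-169) and anti-GST Tb donor, then 20 nM SOS1cat (564-1049) and 150 nM GTP-DY-647P1 added; pH 7.3 HEPES buffer with MgCl2 and DTT. HTRF monitored at RT; % inhibition versus DMSO and no-SOS blank, 4-parameter IC50 taken at 30 min.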

[2] = target: GST-tagged KRAS-G12V (2-169) (Homo sapiens, UniProt P01116, G12V); assay: Nucleotide exchange assay (NEA), SOS-mediated, HTRF, KRAS G12V; format: biochemical; conditions: Table 4; IC50 extracted at 90 min; 80 nM SOS
Sequence of GST-tagged KRAS-G12V (2-169) (P01116 2-169 isoform P01116-2 G12V): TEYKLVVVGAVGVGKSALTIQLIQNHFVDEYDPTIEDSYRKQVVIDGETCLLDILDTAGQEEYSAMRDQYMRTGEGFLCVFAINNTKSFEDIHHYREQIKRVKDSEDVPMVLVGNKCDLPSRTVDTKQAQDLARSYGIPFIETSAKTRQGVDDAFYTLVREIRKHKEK
In short: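 GST-KRAS-G12V (2-169), 0.25 nM, pre-incubated 1 h at RT with compound, then SOS1cat (564-1049) 80 nM and GTP-DY-647P1 150 nM added in HEPES pH 7.3 buffer with MgCl2 and DTT. HTRF via anti-GST Tb cryptate read over 90 min; IC50 from 4-parameter fit at 90 min, blanked to no-SOS reactions.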

KRAS G12V/RAF1 = target: T1, KRAS G12V/RAF1 (Homo sapiens, UniProt P01116, G12V); assay: Protein-protein interaction (PPI) HTRF assay KRAS G12V/RAF1; format: binding; conditions: Table 3
T1 construct: KRAS (1-169) proteins were expressed in BL21 (DE3)-CodonPlus E. coli; His6-MBP (N, cleaved yes)
T1 sequence (P01116 with tags, fused parts or gaps isoform P01116-2 G12V): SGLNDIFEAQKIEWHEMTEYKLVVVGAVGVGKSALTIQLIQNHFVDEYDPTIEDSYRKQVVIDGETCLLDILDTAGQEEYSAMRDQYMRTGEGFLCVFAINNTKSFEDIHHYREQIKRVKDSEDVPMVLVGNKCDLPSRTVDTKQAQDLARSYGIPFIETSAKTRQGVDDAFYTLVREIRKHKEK
Procedure: When RAS proteins are in the active GTP-bound conformation, they bind the effector protein RAF1 at the N-terminus Ras-binding domain (RBD, residues 52-131) (Tran, et al., 2021). Homogenous time resolved fluorescence (HTRF) was used to monitor the interaction between wt or mutant KRAS and RAF1 or wt NRAS and RAF1. Compounds were assayed in the presence of KRAS G12D/V and RAF1 versus wt KRAS to assess activity against mutant and w.t. KRAS. Similarly, compounds were then assayed in the presence of w.t. NRAS and RAF1 to assess RAS isoform selectivity. In all assay formats, His-tagged RAF1 protein was incubated with the HTRF donor, anti-6His Tb Cryptate gold (Cisbio 61DB10RDF), and biotinylated RAS proteins were incubated with the HTRF acceptor, streptavidin-d2 (CisBio 610SADLA). The intensity of the fluorescence signal emitted is proportional to binding between the two proteins. The donor solution was prepared by mixing 16 nM His-tagged RAF1 in protein dilution buffer with 1:100 anti-6His Tb cryptate in PPI-Terbium detection buffer. 16 nM biotinylated RAS protein was diluted into protein dilution buffer (50 mM Tris-HCl pH 7.5, 150 mM NaCl, 0.1 mM MgCl2, 1 mM TCEP, 0.005% Tween20) and mixed with 1:2000 Streptavidin-d2 diluted in PPI-Terbium detection buffer (CisBio 61DB10RDF). 50× compound in DMSO was mixed with 16 nM KRAS-acceptor solution and incubated for 30 minutes at room temperature. After compound pre-incubation with KRAS, the RAF1 donor solution was added to the KRAS-acceptor solution and incubated for 1 hour at room temperature. The fluorescence signal emitted was monitored at 665 nm and 615 nm using an Envision multimode plate reader. The HTRF ratio (665/615) was calculated and normalized to 0% inhibition in the absence of compound and 100% inhibition in the presence of untagged RAF1 protein. PPI KRAS G12D/RAF1, KRAS G12V/RAF1, w.t. KRAS/RAF1 and NRAS/RAF1 IC50 (uM) values of selected compounds are depicted in Table 3 and Table 4 with compounds having a value <0.1 uM as ++++; ≥0.1 uM to 1 uM as +++; ≥1 uM to 10 uM as ++; ≥10 uM to 100 uM as +; and ≥100 uM as NA.

[3] = Table 2, read-out: NEA-G12D (uM) IC50
[4] = Table 4, read-out: NEA G12D IC50

Sequence of GST-tagged KRAS-G12D (2-169) (P01116 2-169 isoform P01116-2 G12D): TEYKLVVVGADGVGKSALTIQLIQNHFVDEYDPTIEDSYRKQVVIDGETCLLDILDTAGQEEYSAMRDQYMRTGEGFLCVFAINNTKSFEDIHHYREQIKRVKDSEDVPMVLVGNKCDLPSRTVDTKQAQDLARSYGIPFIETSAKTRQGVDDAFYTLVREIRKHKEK

SMILES | IC50 [1, 3] [µM] | IC50 [1, 4] [µM] | IC50 [2] [nM] | IC50 (KRAS G12V/RAF1) [µM]
N#Cc1c(N)sc2c1C1(CC2)CN(c2nc(OC[C@@]34CCCN3C[C@H](F)C4)nc(N3CCCC(C#N)C3)n2)C1 (stereo partly drawn) [Compound 13, 2-amino-1′-[4-(3-cyano-1-piperidyl)-6-[[(2R,8S)-2-fluoro-1,2,3,5,6,7-hexahydropyrrolizin-8-yl]methoxy]-1,3,5-triazin-2-yl]spiro[5,6-dihydrocyclopenta[b]thiophene-4,3′-azetidine]-3-carbonitrile] | 0.01 to 0.1 | 0.01 to 0.1 | 10 to 100 | 1 to 10
N#Cc1c(N)sc2c1C1(CC2)CN(c2nc(OCC3(CN4CCOCC4)CC3)nc(N3CCCC4(C3)NC(=O)NC4=O)n2)C1 (stereo not drawn) [Compound 7, 2-amino-1′-[4-(2,4-dioxo-1,3,9-triazaspiro[4.5]decan-9-yl)-6-[[1-(morpholinomethyl)cyclopropyl]methoxy]-1,3,5-triazin-2-yl]spiro[5,6-dihydrocyclopenta[b]thiophene-4,3′-azetidine]-3-carbonitrile] | < 0.01 | < 0.01 | < 10 | 0.1 to 1
N#Cc1c(N)sc2c1C1(CCC2)CN(c2nc(OCC3(CN4CCOCC4)CC3)nc(N3C[C@H]4CC[C@@H](C3)N4)n2)C1 [Compound 3, 2-amino-1′-[4-[(1R,5S)-3,8-diazabicyclo[3.2.1]octan-3-yl]-6-[[1-(morpholinomethyl)cyclopropyl]methoxy]-1,3,5-triazin-2-yl]spiro[6,7-dihydro-5H-benzothiophene-4,3′-azetidine]-3-carbonitrile] | < 0.01 | < 0.01 | 100 to 1000 | 10 to 100
N#Cc1c(N)sc2c1C1(CC2)CN(c2nc(OCC34CCCN3CC(F)C4)nc(N3CC4CCC(C3)N4)n2)C1 [Compound 1, 2-amino-1′-[4-(3,8-diazabicyclo[3.2.1]octan-3-yl)-6-[[(2R,8S)-2-fluoro-1,2,3,5,6,7-hexahydropyrrolizin-8-yl]methoxy]-1,3,5-triazin-2-yl]spiro[5,6-dihydrocyclopenta[b]thiophene-4,3′-azetidine]-3-carbonitrile] | < 0.01 | < 0.01 | 10 to 100 | 0.1 to 1
C[C@@]1(O)CCCN(c2nc(OC[C@@]34CCCN3C[C@H](F)C4)nc(N3CC4(CCc5sc(N)c(C#N)c54)C3)n2)C1 [Compound 10, 2-amino-1′-[4-[[(2R,8S)-2-fluoro-1,2,3,5,6,7-hexahydropyrrolizin-8-yl]methoxy]-6-[(3R)-3-hydroxy-3-methyl-1-piperidyl]-1,3,5-triazin-2-yl]spiro[5,6-dihydrocyclopenta[b]thiophene-4,3′-azetidine]-3-carbonitrile] | < 0.01 | < 0.01 | < 10 | 1 to 10
N#Cc1c(N)sc2c1C1(CC2)CN(c2nc(OCC3(CN4CCOCC4)CC3)nc(N3C[C@H]4CC[C@@H](C3)N4)n2)C1 [Compound 2, 2-amino-1′-[4-[[1-(morpholinomethyl)cyclopropyl]methoxy]-6-[(1R,5S)-3,8-diazabicyclo[3.2.1]octan-3-yl]-1,3,5-triazin-2-yl]spiro[5,6-dihydrocyclopenta[b]thiophene-4,3′-azetidine]-3-carbonitrile] | < 0.01 | < 0.01 | 100 to 1000 | 1 to 10
